This is an account of results in publication PMC6437697 (Journal of Medicinal Chemistry, 2019).

Holding throughout (test): KINOMEscan
What all share (format): binding
Holding throughout (conditions): read-out: % control activity remaining

The target of one test is T1, IRAK4 (Homo sapiens, UniProt Q9NWZ3).
T1 construct: purchased Eurofins DiscoverX KINOMEscan
T1 sequence (Q9NWZ3 1-460): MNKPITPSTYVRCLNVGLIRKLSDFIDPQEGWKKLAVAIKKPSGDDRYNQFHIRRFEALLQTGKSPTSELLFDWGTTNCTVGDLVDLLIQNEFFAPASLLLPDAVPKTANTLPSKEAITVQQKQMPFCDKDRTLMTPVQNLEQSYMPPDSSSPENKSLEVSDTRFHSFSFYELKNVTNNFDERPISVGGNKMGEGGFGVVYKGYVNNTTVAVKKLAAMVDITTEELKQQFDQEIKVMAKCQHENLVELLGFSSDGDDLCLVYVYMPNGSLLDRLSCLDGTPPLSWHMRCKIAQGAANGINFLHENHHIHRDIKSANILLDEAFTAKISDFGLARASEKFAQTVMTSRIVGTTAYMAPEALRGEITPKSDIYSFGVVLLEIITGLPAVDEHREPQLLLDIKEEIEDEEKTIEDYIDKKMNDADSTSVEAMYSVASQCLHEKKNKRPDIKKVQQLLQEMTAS

In another test the target is T2, RET(V804L) (Homo sapiens, UniProt P07949, V804L).
T2 construct: purchased Eurofins DiscoverX KINOMEscan

For the next test, the target named is T3, GCN2(Kin.Dom.2,S808G) (Homo sapiens, UniProt Q9P2K8, S808G).
T3 construct: GCN2(Kin.Dom.2,S808G); purchased Eurofins DiscoverX KINOMEscan
T3 sequence (Q9P2K8 590-1001 S808G limits assumed): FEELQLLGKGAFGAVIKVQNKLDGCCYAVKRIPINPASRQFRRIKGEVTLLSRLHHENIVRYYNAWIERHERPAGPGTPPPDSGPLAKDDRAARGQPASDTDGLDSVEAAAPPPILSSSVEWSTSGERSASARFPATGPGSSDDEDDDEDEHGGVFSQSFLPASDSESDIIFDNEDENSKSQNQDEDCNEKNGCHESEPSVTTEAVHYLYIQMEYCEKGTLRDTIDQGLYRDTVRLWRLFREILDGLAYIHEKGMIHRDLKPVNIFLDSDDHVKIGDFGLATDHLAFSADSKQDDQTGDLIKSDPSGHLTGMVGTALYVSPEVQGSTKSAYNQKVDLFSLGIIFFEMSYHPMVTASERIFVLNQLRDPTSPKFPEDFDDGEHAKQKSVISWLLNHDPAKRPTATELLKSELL

The target in another test is T4, MYO3A (Homo sapiens, UniProt Q8NEV4).
T4 construct: purchased Eurofins DiscoverX KINOMEscan

The target of a further test is T5, EPHA6 (Homo sapiens, UniProt Q9UF33).
T5 construct: purchased Eurofins DiscoverX KINOMEscan
T5 sequence (Q9UF33 23-1036): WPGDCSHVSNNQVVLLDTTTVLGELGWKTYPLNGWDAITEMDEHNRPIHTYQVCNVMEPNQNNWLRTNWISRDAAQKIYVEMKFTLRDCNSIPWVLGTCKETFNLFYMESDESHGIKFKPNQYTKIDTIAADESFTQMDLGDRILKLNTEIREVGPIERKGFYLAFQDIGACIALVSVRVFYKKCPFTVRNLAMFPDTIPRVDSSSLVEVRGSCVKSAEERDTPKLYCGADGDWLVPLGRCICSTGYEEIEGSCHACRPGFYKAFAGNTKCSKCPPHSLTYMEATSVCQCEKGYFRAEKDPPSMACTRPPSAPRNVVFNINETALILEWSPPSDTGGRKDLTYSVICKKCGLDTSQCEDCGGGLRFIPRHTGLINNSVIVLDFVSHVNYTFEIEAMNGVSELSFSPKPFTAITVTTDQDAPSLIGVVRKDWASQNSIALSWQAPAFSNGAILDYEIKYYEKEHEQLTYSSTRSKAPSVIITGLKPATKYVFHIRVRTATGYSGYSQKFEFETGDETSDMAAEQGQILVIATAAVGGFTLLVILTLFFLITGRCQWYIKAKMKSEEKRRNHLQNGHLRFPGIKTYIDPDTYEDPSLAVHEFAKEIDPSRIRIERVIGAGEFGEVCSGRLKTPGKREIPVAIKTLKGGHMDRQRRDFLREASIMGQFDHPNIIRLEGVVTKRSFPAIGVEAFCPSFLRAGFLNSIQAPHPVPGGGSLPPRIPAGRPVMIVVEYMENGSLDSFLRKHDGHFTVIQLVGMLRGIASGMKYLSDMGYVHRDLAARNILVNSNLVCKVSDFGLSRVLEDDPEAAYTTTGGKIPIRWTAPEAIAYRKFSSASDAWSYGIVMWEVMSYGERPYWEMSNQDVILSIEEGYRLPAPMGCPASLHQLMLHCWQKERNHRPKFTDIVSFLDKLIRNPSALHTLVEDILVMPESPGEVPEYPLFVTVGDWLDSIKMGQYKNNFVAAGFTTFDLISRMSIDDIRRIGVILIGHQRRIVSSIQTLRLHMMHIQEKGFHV

The target in the next test is T6, STK16 (Homo sapiens, UniProt O75716).
T6 construct: purchased Eurofins DiscoverX KINOMEscan

Another test has as its target T7, DAPK2 (Homo sapiens, UniProt Q9UIK4).
T7 construct: purchased Eurofins DiscoverX KINOMEscan

The next test addresses T8, PIK3CB (Homo sapiens, UniProt P42338).
T8 construct: purchased Eurofins DiscoverX KINOMEscan

In a further test the target is T9, QSK (Homo sapiens, UniProt Q9Y2K2).
T9 construct: purchased Eurofins DiscoverX KINOMEscan

The target of test [1] is T10, JAK1(JH2domain-pseudokinase) (Homo sapiens, UniProt P23458).
T10 construct: JAK1(JH2domain-pseudokinase); purchased Eurofins DiscoverX KINOMEscan

The next test has as its target T11, PIK3CA(H1047L) (Homo sapiens, UniProt P42336, H1047L).
T11 construct: purchased Eurofins DiscoverX KINOMEscan

The target of a further test is T12, PCTK1 (Homo sapiens, UniProt Q00536).
T12 construct: purchased Eurofins DiscoverX KINOMEscan

Test [2] concerns the target T13, ABL1(T315I)-phosphorylated (Homo sapiens, UniProt P00519, T315I).
T13 construct: purchased Eurofins DiscoverX KINOMEscan

Another test deals with T14, CDKL3 (Homo sapiens, UniProt Q8IVW4).
T14 construct: purchased Eurofins DiscoverX KINOMEscan

Each structure is given as a SMILES string.

T8 sequence (P42338 whole entry): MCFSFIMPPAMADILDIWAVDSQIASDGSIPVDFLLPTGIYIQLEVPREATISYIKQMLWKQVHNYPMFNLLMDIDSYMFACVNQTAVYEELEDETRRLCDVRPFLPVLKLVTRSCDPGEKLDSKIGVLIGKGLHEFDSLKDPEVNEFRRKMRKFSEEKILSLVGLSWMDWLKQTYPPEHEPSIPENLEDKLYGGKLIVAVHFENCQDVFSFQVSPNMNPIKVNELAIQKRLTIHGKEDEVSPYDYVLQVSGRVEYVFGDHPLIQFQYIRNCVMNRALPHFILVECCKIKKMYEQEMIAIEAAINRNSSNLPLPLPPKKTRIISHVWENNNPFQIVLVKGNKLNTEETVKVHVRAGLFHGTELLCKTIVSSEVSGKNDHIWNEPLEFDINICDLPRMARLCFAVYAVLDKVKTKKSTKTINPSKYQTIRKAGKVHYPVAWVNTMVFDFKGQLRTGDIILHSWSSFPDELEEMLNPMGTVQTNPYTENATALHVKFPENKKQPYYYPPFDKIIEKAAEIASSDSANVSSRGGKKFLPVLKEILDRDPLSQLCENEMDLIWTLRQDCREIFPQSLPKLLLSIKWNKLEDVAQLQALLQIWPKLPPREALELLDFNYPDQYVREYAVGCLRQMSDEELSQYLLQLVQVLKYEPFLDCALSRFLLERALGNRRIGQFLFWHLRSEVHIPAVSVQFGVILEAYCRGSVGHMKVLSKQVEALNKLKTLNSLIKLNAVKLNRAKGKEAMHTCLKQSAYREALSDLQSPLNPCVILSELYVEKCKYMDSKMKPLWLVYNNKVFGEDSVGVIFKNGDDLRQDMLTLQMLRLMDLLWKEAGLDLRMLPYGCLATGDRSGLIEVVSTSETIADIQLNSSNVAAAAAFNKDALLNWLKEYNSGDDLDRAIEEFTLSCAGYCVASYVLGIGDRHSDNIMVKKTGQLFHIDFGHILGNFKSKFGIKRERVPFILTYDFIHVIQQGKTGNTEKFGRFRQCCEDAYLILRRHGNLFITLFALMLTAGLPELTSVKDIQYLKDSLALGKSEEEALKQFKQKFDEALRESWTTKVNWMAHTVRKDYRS
T7 sequence (Q9UIK4 whole entry): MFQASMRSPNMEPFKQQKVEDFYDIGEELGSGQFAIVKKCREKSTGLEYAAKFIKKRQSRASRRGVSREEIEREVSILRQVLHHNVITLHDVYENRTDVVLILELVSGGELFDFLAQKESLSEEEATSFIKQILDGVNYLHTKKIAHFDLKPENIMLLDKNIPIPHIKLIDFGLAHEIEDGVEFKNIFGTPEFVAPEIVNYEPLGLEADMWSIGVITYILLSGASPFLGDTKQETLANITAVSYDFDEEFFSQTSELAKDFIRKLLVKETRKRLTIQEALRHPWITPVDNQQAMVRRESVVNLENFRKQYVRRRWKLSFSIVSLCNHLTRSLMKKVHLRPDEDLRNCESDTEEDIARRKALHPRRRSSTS
T4 sequence (Q8NEV4 whole entry): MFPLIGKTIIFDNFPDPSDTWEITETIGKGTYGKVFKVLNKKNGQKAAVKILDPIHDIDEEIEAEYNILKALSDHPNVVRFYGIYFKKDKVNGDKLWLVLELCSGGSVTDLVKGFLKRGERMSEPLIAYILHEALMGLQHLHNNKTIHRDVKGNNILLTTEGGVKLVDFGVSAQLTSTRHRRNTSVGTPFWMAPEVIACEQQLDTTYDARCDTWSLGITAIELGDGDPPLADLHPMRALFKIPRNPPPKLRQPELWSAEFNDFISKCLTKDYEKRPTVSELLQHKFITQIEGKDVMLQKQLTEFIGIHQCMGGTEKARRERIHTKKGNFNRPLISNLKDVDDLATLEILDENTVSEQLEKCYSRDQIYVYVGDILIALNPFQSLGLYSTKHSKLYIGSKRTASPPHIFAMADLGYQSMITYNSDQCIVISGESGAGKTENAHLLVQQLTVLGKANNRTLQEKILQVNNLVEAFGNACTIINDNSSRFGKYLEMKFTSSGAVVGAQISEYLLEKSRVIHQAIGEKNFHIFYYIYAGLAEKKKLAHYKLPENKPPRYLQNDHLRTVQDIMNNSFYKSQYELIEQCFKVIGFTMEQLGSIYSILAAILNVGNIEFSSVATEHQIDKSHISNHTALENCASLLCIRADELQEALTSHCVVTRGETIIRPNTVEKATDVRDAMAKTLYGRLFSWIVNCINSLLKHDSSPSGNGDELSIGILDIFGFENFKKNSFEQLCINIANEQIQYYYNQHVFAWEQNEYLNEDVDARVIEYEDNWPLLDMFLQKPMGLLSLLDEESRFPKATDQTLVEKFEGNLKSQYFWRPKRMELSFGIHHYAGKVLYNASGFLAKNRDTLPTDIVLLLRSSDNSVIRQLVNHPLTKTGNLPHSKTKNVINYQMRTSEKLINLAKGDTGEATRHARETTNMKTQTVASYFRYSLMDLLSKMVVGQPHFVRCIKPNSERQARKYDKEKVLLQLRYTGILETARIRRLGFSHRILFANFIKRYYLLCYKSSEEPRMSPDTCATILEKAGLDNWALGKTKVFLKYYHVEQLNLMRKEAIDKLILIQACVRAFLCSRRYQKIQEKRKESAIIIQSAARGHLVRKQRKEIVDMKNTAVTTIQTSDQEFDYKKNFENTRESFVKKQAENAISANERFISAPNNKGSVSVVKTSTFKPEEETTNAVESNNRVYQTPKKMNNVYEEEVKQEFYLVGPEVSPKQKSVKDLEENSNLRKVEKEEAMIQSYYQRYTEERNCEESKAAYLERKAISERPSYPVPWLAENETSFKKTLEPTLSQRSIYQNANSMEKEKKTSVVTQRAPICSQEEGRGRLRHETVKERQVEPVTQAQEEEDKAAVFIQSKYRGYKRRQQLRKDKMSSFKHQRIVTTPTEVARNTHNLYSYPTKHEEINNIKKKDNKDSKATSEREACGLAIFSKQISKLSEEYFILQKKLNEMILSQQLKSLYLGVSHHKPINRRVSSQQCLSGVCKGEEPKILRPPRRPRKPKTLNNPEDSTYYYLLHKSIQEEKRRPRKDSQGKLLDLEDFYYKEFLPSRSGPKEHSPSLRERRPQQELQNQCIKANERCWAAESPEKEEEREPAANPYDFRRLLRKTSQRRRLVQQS
T11 sequence (P42336 whole entry H1047L): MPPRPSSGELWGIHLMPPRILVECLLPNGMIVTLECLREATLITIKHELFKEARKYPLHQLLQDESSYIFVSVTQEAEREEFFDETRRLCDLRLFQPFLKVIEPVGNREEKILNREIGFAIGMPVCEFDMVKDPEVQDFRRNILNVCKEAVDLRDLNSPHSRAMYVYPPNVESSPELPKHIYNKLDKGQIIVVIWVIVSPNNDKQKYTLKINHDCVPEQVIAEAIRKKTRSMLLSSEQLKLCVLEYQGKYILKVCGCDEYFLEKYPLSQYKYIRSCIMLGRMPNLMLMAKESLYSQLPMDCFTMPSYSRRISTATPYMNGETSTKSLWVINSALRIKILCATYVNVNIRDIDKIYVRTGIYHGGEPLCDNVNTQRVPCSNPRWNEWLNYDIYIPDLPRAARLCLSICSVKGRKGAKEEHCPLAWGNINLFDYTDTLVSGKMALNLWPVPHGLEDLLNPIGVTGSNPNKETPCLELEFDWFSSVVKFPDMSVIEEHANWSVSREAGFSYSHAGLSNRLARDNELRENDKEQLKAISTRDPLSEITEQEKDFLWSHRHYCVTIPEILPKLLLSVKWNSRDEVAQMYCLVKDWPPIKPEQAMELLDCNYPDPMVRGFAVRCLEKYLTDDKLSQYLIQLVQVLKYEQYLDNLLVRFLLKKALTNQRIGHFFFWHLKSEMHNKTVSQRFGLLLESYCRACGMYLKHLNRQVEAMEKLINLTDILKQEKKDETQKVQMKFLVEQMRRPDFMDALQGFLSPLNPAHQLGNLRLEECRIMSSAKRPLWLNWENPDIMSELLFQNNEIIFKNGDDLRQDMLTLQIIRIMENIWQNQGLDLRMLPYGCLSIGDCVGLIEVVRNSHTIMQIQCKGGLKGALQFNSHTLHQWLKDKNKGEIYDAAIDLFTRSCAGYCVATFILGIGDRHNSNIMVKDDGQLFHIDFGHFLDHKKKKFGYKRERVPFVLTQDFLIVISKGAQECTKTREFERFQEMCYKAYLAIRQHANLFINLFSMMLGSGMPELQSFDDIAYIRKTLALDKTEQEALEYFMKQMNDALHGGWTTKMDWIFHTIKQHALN
T12 sequence (Q00536 whole entry): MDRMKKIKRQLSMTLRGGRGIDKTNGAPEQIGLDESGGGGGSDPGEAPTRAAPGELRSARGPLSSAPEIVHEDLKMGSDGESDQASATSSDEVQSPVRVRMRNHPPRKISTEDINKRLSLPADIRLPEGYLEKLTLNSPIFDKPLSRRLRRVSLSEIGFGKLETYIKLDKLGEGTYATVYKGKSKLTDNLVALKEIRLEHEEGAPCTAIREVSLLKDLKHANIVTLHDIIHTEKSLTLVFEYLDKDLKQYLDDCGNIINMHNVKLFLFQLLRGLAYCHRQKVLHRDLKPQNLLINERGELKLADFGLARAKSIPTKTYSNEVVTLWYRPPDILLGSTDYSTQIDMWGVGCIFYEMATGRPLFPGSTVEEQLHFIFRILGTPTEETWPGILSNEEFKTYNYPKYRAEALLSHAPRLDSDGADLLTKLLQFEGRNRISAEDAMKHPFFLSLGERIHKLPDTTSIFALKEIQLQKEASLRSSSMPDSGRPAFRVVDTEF
T6 sequence (O75716 whole entry): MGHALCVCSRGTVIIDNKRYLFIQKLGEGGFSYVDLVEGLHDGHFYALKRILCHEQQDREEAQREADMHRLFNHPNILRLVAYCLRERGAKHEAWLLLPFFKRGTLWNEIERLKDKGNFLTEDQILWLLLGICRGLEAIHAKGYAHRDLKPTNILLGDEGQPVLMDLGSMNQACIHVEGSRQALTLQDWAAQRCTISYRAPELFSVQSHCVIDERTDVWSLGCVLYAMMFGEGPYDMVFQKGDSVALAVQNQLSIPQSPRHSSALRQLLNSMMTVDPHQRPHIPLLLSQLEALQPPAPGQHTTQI

In the case of `Clc1cc(NCC2CC2)c2ncc(-c3ccc4[nH]ncc4c3)n2n1` [compound 2, 6-Chloro-N-(cyclopropylmethyl)-3-(1H-indazol-5-yl)imidazo[1,2-b]pyridazin-8-amine], the remaining binding at 1 µM is 92% on IRAK4; 100% on RET(V804L); 93% at GCN2(Kin.Dom.2,S808G); 96% on MYO3A; 79% on EPHA6; 100% on STK16. In addition, the remaining binding at 1 µM was determined as 91% on DAPK2; 82% at PIK3CB; 78% at QSK; 93% in test [1]; 95% at PIK3CA(H1047L); 97% on PCTK1. Besides, the remaining binding at 1 µM is 94% in test [2] and 100% on CDKL3.
For `O=C(CN1CCOCC1)N[C@H]1CC[C@H](Nc2cc(Cl)nn3c(-c4ccc5[nH]ncc5c4)cnc23)CC1` [compound 26], the remaining binding at 1 µM on IRAK4 is 85%; at RET(V804L), 88%; at GCN2(Kin.Dom.2,S808G), 97%; on MYO3A, 96%; at EPHA6 it was 93%; on STK16 it was 83%. Further, the remaining binding at 1 µM on DAPK2 was found to be 69%; at PIK3CB it was 93%; on QSK, 82%; in [1] it was 100%; on PIK3CA(H1047L) it was 98%; at PCTK1 it was 87%. The remaining binding at 1 µM stood at 50% in test [2] and 88% at CDKL3.
For `CN1CCC(CNc2cc(Cl)nn3c(-c4cc5nc(Nc6ccccc6)[nH]c5cc4F)cnc23)CC1` [compound 31, 6-Chloro-3-(6-fluoro-2-(phenylamino)-1H-benzo[d]imidazol-5-yl)-N-((1-methylpiperidin-4-yl)methyl)imidazo[1,2-b]pyridazin-8-amine], the remaining binding at 1 µM turned out to be 91% at IRAK4; 92% on RET(V804L); 77% on GCN2(Kin.Dom.2,S808G); 97% on MYO3A; 82% at EPHA6; 96% at STK16. For the same compound, the remaining binding at 1 µM at DAPK2 came out at 98%; on PIK3CB it was 97%; at QSK, 100%; in test [1], 82%; on PIK3CA(H1047L) it was 70%; at PCTK1, 37%. Moreover, the remaining binding at 1 µM in [2] turned out to be 87%; at CDKL3 it was 90%.
